Laboratory results reported in ChEMBL document CHEMBL4507315 (2021).

Key:
[1] = biological target: Dual specificity mitogen-activated protein kinase kinase 3 (Homo sapiens) (UniProt P46734); conditions: Compound concentration 100.0 nM
[2] = biological target: LIM domain kinase 2 (Homo sapiens) (UniProt P53671); conditions: Compound concentration 100.0 nM
[3] = biological target: Fibroblast growth factor receptor 4 (Homo sapiens) (UniProt P22455); conditions: Compound concentration 100.0 nM
[4] = tested on: Tyrosine-protein kinase ABL1 (Homo sapiens), P00519 [F317L]; conditions: Compound concentration 100.0 nM
[5] = biological target: Sodium-dependent dopamine transporter (Homo sapiens) (UniProt Q01959); conditions: Compound concentration 10.0 uM
[6] = biological target: Ribosomal protein S6 kinase alpha-4 (Homo sapiens) (UniProt O75676); conditions: Compound concentration 100.0 nM
[7] = biological target: Cyclin-dependent kinase 2 homolog (Plasmodium falciparum (isolate 3D7)) (UniProt P61075); conditions: Compound concentration 100.0 nM
[8] = biological target: Cyclin-dependent kinase 9 (Homo sapiens) (UniProt P50750); conditions: Compound concentration 100.0 nM
[9] = tested on: Epidermal growth factor receptor (Homo sapiens), P00533 [L858R,T790M]; conditions: Compound concentration 100.0 nM
[10] = biological target: RAF proto-oncogene serine/threonine-protein kinase (Homo sapiens) (UniProt P04049); conditions: Compound concentration 100.0 nM
[11] = biological target: Serine/threonine-protein kinase WNK4 (Homo sapiens) (UniProt Q96J92); conditions: Compound concentration 100.0 nM
[12] = tested on: Tyrosine-protein kinase ABL1 (Homo sapiens), P00519 [F317L]; conditions: Compound concentration 100.0 nM; remark: listed apart in the source
[13] = tested on: Epidermal growth factor receptor (Homo sapiens), P00533 [G719S]; conditions: Compound concentration 100.0 nM
[14] = biological target: Fibroblast growth factor receptor 2 (Homo sapiens) (UniProt P21802); conditions: Compound concentration 100.0 nM
[15] = biological target: Cyclin-G-associated kinase (Homo sapiens) (UniProt O14976); conditions: Compound concentration 100.0 nM
[16] = biological target: Cyclin-dependent kinase 11B (Homo sapiens) (UniProt P21127); conditions: Compound concentration 100.0 nM
[17] = biological target: Serine/threonine-protein kinase Nek1 (Homo sapiens) (UniProt Q96PY6); conditions: Compound concentration 100.0 nM
[18] = biological target: Serine/threonine-protein kinase Nek9 (Homo sapiens) (UniProt Q8TD19); conditions: Compound concentration 100.0 nM
[19] = biological target: Calcium/calmodulin-dependent protein kinase type 1B (Homo sapiens) (UniProt Q6P2M8); conditions: Compound concentration 100.0 nM
[20] = biological target: Fibroblast growth factor receptor 3 (Homo sapiens) (UniProt P22607); conditions: Compound concentration 100.0 nM
[21] = biological target: D(2) dopamine receptor (Homo sapiens) (UniProt P14416); conditions: Compound concentration 10.0 uM
[22] = biological target: Serine/threonine-protein kinase PLK4 (Homo sapiens) (UniProt O00444); conditions: Compound concentration 100.0 nM
[23] = tested on: ALK tyrosine kinase receptor (Homo sapiens), Q9UM73 [L1196M]; conditions: Compound concentration 100.0 nM
[24] = biological target: Serine/threonine-protein kinase 10 (Homo sapiens) (UniProt O94804); conditions: Compound concentration 100.0 nM
[25] = tested on: Phosphatidylinositol 4,5-bisphosphate 3-kinase catalytic subunit alpha isoform (Homo sapiens), P42336 [E542K]; conditions: Compound concentration 100.0 nM
[26] = biological target: Interleukin-1 receptor-associated kinase 3 (Homo sapiens) (UniProt Q9Y616); conditions: Compound concentration 100.0 nM
[27] = tested on: Receptor-type tyrosine-protein kinase FLT3 (Homo sapiens), P36888 [N841I]; conditions: Compound concentration 100.0 nM
[28] = biological target: Mitogen-activated protein kinase 12 (Homo sapiens) (UniProt P53778); conditions: Compound concentration 100.0 nM
[29] = biological target: Muscarinic acetylcholine receptor M4 (Homo sapiens) (UniProt P08173); conditions: Compound concentration 10.0 uM
[30] = biological target: Serine/threonine-protein kinase 32A (Homo sapiens) (UniProt Q8WU08); conditions: Compound concentration 100.0 nM
[31] = biological target: Serine/threonine-protein kinase 36 (Homo sapiens) (UniProt Q9NRP7); conditions: Compound concentration 100.0 nM
[32] = biological target: Calcium/calmodulin-dependent protein kinase type IV (Homo sapiens) (UniProt Q16566); conditions: Compound concentration 100.0 nM
[33] = biological target: Serine/threonine-protein kinase Nek11 (Homo sapiens) (UniProt Q8NG66); conditions: Compound concentration 100.0 nM
[34] = biological target: Macrophage-stimulating protein receptor (Homo sapiens) (UniProt Q04912); conditions: Compound concentration 100.0 nM
[35] = biological target: Receptor-type tyrosine-protein kinase FLT3 (Homo sapiens) (UniProt P36888); conditions: Compound concentration 100.0 nM
[36] = biological target: Aurora kinase A (Homo sapiens) (UniProt O14965); conditions: Compound concentration 100.0 nM
[37] = biological target: Serine/threonine-protein kinase pim-3 (Homo sapiens) (UniProt Q86V86); conditions: Compound concentration 100.0 nM
[38] = tested on: Phosphatidylinositol 4,5-bisphosphate 3-kinase catalytic subunit alpha isoform (Homo sapiens), P42336 [Q546K]; conditions: Compound concentration 100.0 nM
[39] = biological target: Casein kinase II subunit alpha (Homo sapiens) (UniProt P68400); conditions: Compound concentration 100.0 nM
[40] = biological target: Ribosomal protein S6 kinase alpha-5 (Homo sapiens) (UniProt O75582); conditions: Compound concentration 100.0 nM
[41] = biological target: Activin receptor type-1 (Homo sapiens) (UniProt Q04771); conditions: Compound concentration 100.0 nM
[42] = biological target: Serine/threonine-protein kinase PAK 3 (Homo sapiens) (UniProt O75914); conditions: Compound concentration 100.0 nM
[43] = biological target: Tyrosine-protein kinase receptor Tie-1 (Homo sapiens) (UniProt P35590); conditions: Compound concentration 100.0 nM
[44] = biological target: Cyclin-dependent kinase-like 1 (Homo sapiens) (UniProt Q00532); conditions: Compound concentration 100.0 nM
[45] = biological target: Alpha-2A adrenergic receptor (Homo sapiens) (UniProt P08913); conditions: Compound concentration 10.0 uM

Sequence of Tyrosine-protein kinase ABL1 (Homo sapiens), P00519 [F317L] (P00519 whole entry F317L): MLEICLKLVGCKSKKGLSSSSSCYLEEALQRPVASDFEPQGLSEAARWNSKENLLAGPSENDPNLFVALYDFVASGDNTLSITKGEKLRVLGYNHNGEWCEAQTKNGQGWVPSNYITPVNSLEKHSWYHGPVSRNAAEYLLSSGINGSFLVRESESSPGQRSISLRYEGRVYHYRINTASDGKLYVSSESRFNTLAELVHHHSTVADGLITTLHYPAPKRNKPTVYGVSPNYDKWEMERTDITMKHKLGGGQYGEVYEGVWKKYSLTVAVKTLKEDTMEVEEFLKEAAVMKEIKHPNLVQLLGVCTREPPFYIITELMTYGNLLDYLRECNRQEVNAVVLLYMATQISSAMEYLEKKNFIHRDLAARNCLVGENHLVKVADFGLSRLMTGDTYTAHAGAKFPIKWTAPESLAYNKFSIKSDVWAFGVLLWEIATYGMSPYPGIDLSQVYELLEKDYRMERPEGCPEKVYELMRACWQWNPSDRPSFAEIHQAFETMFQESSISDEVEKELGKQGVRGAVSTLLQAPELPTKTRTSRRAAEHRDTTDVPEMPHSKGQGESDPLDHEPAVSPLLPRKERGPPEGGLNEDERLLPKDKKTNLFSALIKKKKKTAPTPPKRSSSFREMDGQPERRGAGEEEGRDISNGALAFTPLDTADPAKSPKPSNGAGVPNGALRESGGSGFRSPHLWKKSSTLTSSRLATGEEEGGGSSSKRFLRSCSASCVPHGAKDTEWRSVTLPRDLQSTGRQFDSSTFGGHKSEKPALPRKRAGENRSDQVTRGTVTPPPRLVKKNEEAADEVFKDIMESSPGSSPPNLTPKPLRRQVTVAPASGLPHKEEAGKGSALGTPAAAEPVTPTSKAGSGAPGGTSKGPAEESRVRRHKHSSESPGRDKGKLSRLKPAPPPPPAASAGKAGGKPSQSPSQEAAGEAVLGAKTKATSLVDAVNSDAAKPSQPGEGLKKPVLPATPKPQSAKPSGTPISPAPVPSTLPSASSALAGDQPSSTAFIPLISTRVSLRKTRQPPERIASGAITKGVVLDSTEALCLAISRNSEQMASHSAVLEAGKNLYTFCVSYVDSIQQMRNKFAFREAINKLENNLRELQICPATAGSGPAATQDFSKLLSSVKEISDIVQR
Sequence of Cyclin-dependent kinase 9 (Homo sapiens) (P50750 whole entry): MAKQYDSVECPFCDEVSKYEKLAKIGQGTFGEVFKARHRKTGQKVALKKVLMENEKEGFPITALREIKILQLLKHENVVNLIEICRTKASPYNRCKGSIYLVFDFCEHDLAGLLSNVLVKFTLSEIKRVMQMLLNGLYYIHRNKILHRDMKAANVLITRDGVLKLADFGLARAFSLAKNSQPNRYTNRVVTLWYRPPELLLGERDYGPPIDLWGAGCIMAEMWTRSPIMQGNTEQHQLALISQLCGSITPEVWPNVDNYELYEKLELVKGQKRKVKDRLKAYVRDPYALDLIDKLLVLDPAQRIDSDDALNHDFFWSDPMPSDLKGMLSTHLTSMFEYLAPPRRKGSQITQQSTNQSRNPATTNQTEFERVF
Sequence of Serine/threonine-protein kinase PAK 3 (Homo sapiens) (O75914 whole entry, looked up): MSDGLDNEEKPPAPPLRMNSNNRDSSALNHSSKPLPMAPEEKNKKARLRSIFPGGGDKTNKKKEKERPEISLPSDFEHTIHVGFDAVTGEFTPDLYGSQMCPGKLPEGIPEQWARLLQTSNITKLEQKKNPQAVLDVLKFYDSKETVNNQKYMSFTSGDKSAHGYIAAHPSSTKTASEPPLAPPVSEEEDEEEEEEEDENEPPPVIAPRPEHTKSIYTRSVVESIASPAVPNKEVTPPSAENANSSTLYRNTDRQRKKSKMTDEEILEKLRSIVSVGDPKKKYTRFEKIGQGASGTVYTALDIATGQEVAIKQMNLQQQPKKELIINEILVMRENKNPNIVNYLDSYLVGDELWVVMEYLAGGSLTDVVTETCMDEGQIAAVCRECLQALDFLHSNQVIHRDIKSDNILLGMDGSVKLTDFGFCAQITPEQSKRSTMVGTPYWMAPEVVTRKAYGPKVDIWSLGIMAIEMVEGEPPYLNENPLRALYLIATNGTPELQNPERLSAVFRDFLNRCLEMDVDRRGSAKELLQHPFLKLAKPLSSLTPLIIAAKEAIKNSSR
Sequence of Mitogen-activated protein kinase 12 (Homo sapiens) (P53778 whole entry): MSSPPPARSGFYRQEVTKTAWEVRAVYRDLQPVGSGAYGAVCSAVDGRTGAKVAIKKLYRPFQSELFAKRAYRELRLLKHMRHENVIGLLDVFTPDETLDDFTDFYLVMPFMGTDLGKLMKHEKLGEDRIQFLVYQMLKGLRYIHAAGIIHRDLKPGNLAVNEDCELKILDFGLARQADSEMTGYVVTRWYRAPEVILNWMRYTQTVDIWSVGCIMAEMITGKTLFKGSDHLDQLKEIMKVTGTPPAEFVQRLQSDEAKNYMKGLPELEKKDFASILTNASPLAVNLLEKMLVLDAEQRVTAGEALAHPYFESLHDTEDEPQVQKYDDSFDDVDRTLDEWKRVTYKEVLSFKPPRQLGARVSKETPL
Sequence of Cyclin-G-associated kinase (Homo sapiens) (O14976 whole entry): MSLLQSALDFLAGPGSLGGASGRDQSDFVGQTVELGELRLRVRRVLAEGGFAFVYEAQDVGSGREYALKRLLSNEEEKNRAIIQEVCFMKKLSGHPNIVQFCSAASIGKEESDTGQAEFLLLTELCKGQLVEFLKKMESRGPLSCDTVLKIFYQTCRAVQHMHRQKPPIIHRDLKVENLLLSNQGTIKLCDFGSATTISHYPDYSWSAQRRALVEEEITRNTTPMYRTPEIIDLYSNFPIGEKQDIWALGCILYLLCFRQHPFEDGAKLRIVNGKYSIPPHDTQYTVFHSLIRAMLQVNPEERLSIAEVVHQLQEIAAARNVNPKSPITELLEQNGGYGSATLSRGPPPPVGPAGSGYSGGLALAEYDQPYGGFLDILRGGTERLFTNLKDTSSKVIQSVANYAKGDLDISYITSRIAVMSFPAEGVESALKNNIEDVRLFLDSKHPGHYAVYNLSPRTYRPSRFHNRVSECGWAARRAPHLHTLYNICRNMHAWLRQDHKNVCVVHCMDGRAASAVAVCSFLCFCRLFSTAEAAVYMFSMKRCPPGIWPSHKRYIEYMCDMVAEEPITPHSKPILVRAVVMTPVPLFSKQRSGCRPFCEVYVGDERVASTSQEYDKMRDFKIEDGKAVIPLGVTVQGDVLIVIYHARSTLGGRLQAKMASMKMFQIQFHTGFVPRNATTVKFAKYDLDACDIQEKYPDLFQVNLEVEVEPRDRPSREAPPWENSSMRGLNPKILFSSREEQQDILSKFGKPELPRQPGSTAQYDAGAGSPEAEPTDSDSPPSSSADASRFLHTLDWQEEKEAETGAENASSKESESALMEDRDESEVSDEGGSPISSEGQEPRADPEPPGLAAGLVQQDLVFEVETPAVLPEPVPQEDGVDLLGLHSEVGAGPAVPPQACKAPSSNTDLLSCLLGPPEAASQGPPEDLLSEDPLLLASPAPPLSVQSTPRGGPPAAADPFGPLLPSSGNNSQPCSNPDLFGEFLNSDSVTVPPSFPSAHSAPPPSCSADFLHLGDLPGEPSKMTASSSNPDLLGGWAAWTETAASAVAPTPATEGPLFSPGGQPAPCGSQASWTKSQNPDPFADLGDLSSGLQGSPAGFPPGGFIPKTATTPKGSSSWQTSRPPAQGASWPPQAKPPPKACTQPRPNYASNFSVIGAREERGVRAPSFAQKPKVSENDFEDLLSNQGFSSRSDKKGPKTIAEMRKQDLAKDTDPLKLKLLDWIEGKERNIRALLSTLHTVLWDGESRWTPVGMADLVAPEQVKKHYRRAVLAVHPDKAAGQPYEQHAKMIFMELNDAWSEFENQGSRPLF
Sequence of Aurora kinase A (Homo sapiens) (O14965 whole entry): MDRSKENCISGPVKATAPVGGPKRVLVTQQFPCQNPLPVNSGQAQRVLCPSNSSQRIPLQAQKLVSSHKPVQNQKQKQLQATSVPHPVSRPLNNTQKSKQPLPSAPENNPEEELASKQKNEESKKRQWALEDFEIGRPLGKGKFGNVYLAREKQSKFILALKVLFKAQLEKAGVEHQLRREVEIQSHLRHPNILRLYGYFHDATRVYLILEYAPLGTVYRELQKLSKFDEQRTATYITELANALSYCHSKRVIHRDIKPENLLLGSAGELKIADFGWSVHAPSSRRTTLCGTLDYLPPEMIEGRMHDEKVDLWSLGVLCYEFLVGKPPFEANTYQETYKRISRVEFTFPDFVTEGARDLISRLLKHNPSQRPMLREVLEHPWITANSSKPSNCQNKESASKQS
Sequence of Fibroblast growth factor receptor 3 (Homo sapiens) (P22607 23-806 limits assumed): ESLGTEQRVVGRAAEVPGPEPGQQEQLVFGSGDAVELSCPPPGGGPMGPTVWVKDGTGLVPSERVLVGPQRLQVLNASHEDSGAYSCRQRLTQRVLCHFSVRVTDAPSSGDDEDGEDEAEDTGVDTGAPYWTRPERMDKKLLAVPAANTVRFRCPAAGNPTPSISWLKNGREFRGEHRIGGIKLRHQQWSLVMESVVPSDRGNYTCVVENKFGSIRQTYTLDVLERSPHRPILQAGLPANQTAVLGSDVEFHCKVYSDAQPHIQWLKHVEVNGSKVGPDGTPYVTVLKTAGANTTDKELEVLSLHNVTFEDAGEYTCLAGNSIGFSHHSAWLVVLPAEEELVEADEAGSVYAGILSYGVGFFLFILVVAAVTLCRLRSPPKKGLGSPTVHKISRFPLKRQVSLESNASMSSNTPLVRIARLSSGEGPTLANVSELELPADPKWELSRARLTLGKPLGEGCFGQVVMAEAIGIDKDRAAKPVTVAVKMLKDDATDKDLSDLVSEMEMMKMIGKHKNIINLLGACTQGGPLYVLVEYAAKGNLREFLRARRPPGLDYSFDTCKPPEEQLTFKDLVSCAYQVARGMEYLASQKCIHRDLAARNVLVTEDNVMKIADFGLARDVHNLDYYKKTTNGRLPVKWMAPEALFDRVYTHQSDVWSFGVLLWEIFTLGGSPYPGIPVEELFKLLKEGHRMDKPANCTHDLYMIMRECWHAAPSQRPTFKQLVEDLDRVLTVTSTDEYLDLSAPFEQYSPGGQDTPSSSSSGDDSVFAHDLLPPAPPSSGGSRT

Nc1c(C(=O)NCc2ccc(C(=O)NCCCC3CCCCC3)cc2)cnn1-c1ccccc1 [SR-318]
inactive: residual activity [1] 85% | residual activity [2] 100% | residual activity [3] 97% | residual activity [4] 100% | inhibition [5] 26.8% | residual activity [6] 98% | residual activity [7] 100% | residual activity [8] 100% | residual activity [9] 96% | residual activity [10] 100% | residual activity [11] 80% | residual activity [12] 100% | residual activity [13] 84% | residual activity [14] 100% | residual activity [15] 100% | residual activity [16] 100% | residual activity [17] 84% | residual activity [18] 100% | residual activity [19] 100% | residual activity [20] 100% | inhibition [21] 15% | residual activity [22] 100% | residual activity [23] 100% | residual activity [24] 100% | residual activity [25] 100% | residual activity [26] 94% | residual activity [27] 95% | residual activity [28] 100% | inhibition [29] -4.14% | residual activity [30] 96% | residual activity [31] 100% | residual activity [32] 98% | residual activity [33] 94% | residual activity [34] 100% | residual activity [35] 100% | residual activity [36] 100% | residual activity [37] 91% | residual activity [38] 96% | residual activity [39] 70% | residual activity [40] 94% | residual activity [41] 100% | residual activity [42] 100% | residual activity [43] 100% | residual activity [44] 100% | inhibition [45] 4.08%

O=C(NCCCC1CCCCC1)c1ccc(CNC(=O)c2cnn(-c3ccccc3)c2C(F)(F)F)cc1 [SR-321]
inactive: residual activity [1] 100% | residual activity [2] 100% | residual activity [3] 100% | residual activity [4] 82% | inhibition [5] 22.3% | residual activity [6] 90% | residual activity [7] 100% | residual activity [8] 100% | residual activity [9] 95% | residual activity [10] 99% | residual activity [11] 100% | residual activity [12] 100% | residual activity [13] 80% | residual activity [14] 100% | residual activity [15] 100% | residual activity [16] 100% | residual activity [17] 58% | residual activity [18] 100% | residual activity [19] 79% | residual activity [20] 100% | inhibition [21] 15.8% | residual activity [22] 96% | residual activity [23] 100% | residual activity [24] 100% | residual activity [25] 74% | residual activity [26] 100% | residual activity [27] 88% | residual activity [28] 100% | inhibition [29] 20.1% | residual activity [30] 76% | residual activity [31] 100% | residual activity [32] 100% | residual activity [33] 100% | residual activity [34] 100% | residual activity [35] 100% | residual activity [36] 100% | residual activity [37] 100% | residual activity [38] 67% | residual activity [39] 94% | residual activity [40] 100% | residual activity [41] 100% | residual activity [42] 100% | residual activity [43] 100% | residual activity [44] 80% | inhibition [45] -2.46%
